# Assay results from patent US20260138961A1, “MODULATORS OF MITOCHONDRIAL DNA REPLICATION” (Pretzel Therapeutics, Inc., priority 2022, published 2026).
# Biological target: T1, POLγA:G848S (Homo sapiens, UniProt P54098, G848S)
# T1 sequence (P54098 1-1239 G848S): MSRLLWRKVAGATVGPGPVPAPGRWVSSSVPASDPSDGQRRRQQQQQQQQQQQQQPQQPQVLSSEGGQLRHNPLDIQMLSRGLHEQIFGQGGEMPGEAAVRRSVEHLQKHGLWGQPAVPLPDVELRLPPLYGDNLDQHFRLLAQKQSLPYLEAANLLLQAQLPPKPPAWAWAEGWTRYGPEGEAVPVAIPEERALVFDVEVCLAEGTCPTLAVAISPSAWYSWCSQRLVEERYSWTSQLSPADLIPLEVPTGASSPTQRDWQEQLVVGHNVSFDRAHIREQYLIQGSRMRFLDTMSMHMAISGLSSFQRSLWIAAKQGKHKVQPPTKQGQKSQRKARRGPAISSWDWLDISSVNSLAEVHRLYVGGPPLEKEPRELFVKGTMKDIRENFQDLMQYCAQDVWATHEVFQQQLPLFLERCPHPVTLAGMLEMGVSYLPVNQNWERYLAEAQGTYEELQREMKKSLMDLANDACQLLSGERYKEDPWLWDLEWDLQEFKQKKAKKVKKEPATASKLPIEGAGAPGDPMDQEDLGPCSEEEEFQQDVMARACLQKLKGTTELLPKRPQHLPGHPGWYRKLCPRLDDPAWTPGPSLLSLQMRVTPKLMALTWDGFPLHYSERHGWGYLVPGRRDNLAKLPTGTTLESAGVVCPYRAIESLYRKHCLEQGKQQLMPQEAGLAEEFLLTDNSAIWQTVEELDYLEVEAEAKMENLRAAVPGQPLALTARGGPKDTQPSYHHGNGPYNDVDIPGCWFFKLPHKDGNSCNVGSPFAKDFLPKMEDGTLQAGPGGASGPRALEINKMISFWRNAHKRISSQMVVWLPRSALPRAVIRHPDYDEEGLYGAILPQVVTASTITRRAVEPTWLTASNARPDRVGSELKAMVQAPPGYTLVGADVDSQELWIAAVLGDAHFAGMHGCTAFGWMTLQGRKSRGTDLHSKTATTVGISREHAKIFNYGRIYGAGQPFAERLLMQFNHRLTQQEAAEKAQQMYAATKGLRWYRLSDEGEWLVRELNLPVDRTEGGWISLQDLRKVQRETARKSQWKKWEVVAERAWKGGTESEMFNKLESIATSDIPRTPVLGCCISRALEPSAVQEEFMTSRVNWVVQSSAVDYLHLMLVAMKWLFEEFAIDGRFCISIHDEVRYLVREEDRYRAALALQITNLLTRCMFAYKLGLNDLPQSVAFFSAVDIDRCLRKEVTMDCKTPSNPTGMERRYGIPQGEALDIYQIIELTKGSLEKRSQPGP
# T1 sequence (Q9UHN1 1-485 partner): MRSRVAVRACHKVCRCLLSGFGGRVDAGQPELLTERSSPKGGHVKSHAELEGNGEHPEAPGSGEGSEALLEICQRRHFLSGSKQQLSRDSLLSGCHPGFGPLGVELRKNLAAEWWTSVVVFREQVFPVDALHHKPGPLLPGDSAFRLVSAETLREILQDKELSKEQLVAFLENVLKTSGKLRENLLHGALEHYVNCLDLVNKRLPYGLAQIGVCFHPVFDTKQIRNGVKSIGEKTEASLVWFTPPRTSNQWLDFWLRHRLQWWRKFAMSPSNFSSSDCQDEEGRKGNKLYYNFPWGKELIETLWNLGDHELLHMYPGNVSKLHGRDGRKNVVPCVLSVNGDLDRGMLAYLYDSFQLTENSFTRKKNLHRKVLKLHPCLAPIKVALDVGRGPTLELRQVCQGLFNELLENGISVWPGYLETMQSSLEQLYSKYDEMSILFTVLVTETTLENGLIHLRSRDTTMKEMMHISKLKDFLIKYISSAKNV
# Test: DNA polymerization assay, POLγA:G848S mutant
# Assay type: biochemical
# Conditions: G848S AC50, stimulation of polymerase activity, primed M13mp18 ssDNA, 37° C. 2 hours
# Method: DNA Polymerization Assay to Monitor Effects on Human Wildtype POLγ and Four Disease-Causing Mutant Variants of Human POLγ.
# The ability of small molecules to stimulate the polymerase activity of POLγ was analyzed in a quantitative fluorescence SYBR Green I assay with fluorescence intensity (FI) readout.
# In the presence of dNTPs, wild type human POLγ and mutant derivatives thereof were incubated with single-stranded, circular M13mp18 ssDNA hybridized to a short DNA oligonucleotide that functions as a primer for initiation of DNA synthesis. POLγ and mutant derivatives thereof will extend the primer and use the M13mp18 molecule as a template to synthesize long stretches of double-stranded DNA. SYBR Green I, which is a double-stranded DNA-binding dye, was used to quantify formation of double-stranded DNA in the reaction. When bound to double-stranded DNA, SYBR Green I fluorescence increases by up to 100-fold.
# The assay was performed in the 384-well plate format. Upon addition of compounds, changes in double-stranded DNA synthesis activity can be monitored by following effects on fluorescent intensity.
# The reactions also contained the accessory POLγB subunit, and the human mitochondrial single-stranded DNA binding protein (mtSSB).
# The DNA template mixture used in the assay contained 0.5 nM primed M13 mp18 ssDNA, 400 nM mtSSB, 0.1 mM Tris-HCl (pH 8.0), 0.1 mM dNTP, 10 mM MgCl2, 0.1 mg/mL BSA, 1 mM TCEP solution, and 0.02% Triton X-100. The DNA template mixture for the wild type protein contained either 100 μM dNTP, 1 μM dNTP, or 0.1 μM dNTP, designated in Table 2 as 100 μM, 1 μM, and 0.1 μM, respectfully.
# Microplates with compounds (0.1 μL in each well) to be tested in the assay were prepared from 10 mM compound stocks in 100% DMSO, and equal amounts of DMSO without any compound were added to positive and negative control wells.
# The protein mixture was dispensed (5 μL into each well) into compound plates and incubated at 37° C. for 15 minutes. After incubation, 5 μL of the DNA template mixture was dispensed into each well. The plates were then incubated at 37° C. for 2 hours.
# During incubation, a combined stop buffer and detection reagent solution was prepared. The buffer contained 25 mM EDTA (pH 8.0), 0.02% Triton X-100, and SYBR Green I [Invitrogen] diluted 10,000× (for fluorescent readout). EDTA will stop the enzymatic reaction by chelating magnesium ions.
row,AC50 [µM],Molecule
1,> 100,"Cc1cc(S(=O)(=O)Nc2noc(-c3ccccc3)n2)c(C)cc1Cl [Example 142, 4-chloro-2,5-dimethyl-N-(5-phenyl-1,2,4-oxadiazol-3-yl)benzenesulfonamide]"

# Same assay, conditions: stimulation of polymerase activity, primed M13mp18 ssDNA, 37° C. 2 hours; read-out: G848S AC50
row,Molecule,AC50 [µM]
1,"Cc1cc(S(=O)(=O)Nc2cccc(C(=O)N(C)c3ccccn3)c2)c(C)cc1Cl [Example 109, 3-((4-chloro-2,5-dimethylphenyl)sulfonamido)-N-methyl-N-(pyridin-2-yl)benzamide]",> 100
2,"Cc1cc(S(=O)(=O)Nc2cccc(C(=O)N3CCC[C@H]3CO)c2)c(C)cc1Cl [Example 145, (S)-4-chloro-N-(3-(2-(hydroxymethyl)pyrrolidine-1-carbonyl)phenyl)-2,5-dimethylbenzenesulfonamide]",67
3,"O=S(=O)(Nc1csc(-c2ccccc2)n1)c1ccc(F)c(F)c1 [Example 122, 3,4-difluoro-N-(2-phenylthiazol-4-yl)benzenesulfonamide]",> 100
4,"Cc1cc(NS(=O)(=O)c2cc(C)c(Cl)cc2C)cc(-c2ncc(C)s2)c1 [Example 110, 4-chloro-2,5-dimethyl-N-(3-methyl-5-(5-methylthiazol-2-yl)phenyl)benzenesulfonamide]",> 100
5,"O=S(=O)(Nc1csc(-c2ccccc2)n1)c1ccc2ncsc2c1 [Example 137, N-(2-phenylthiazol-4-yl)benzo[d]thiazole-6-sulfonamide]",11
6,"Cc1cc(S(=O)(=O)Nc2cccc(C(=O)N(C)C)c2)c(C)cc1Cl [Example 12, 3-((4-chloro-2,5-dimethylphenyl)sulfonamido)-N,N-dimethylbenzamide]",26
7,"Cc1ccc(C)c(S(=O)(=O)Nc2cccc(C(=O)N[C@@H](C)C3CC3)c2)c1 [Example 8, (S)-N-(1-cyclopropylethyl)-3-((2,5-dimethylphenyl)sulfonamido)benzamide]",23
8,"Cc1cc(S(=O)(=O)Nc2ccc3c(c2)CC(=O)N3)c(C)cc1Cl [Example 185, 4-chloro-2,5-dimethyl-N-(2-oxoindolin-5-yl)benzenesulfonamide]",15
9,"Cc1cc(S(=O)(=O)N[C@@H]2CCCN(C(=O)N3CCCC3)C2)c(C)cc1Cl [Example 153, (R)-4-chloro-2,5-dimethyl-N-(1-(pyrrolidine-1-carbonyl)piperidin-3-yl)benzenesulfonamide]",> 100
10,"Cc1cc(S(=O)(=O)N[C@@H]2CCCN(C(=O)[C@@H]3CCCN3C)C2)c(C)cc1Cl [Example 104, 4-chloro-2,5-dimethyl-N-((R)-1-(methyl-L-prolyl)piperidin-3-yl)benzenesulfonamide]",47
11,"Cc1cc(S(=O)(=O)Nc2csc(-c3ccccc3)n2)c(F)cc1Cl [Example 146, 4-chloro-2-fluoro-5-methyl-N-(2-phenylthiazol-4-yl)benzenesulfonamide]",> 100
12,"(R)-2,5-dimethyl-N-(3-(3-methylmorpholine-4-carbonyl)phenyl)benzenesulfonamide [Example 1]",18
13,"Cc1cc(S(=O)(=O)Nc2cccc(-c3ncc(C(=O)N(C)C)s3)c2)c(C)cc1Cl [Example 94, 2-(3-((4-chloro-2,5-dimethylphenyl)sulfonamido)phenyl)-N,N-dimethylthiazole-5-carboxamide]",> 100
14,"Cc1cc(S(=O)(=O)Nc2cccc(-c3ncc(-c4nnn[nH]4)s3)c2)c(C)cc1Cl [Example 97, N-(3-(5-(1H-tetrazol-5-yl)thiazol-2-yl)phenyl)-4-chloro-2,5-dimethylbenzenesulfonamide]",> 100

# Now from value to molecule:
row,AC50 [µM],Molecule
1,33,"Cc1ccc(C)c(S(=O)(=O)Nc2cccc(C(=O)NCC3CC3)c2)c1 [Example 4, N-(cyclopropylmethyl)-3-((2,5-dimethylphenyl)sulfonamido)benzamide]"
2,> 100,"Cc1cnc(-c2cc(NS(=O)(=O)c3cc(C)c(Cl)cc3C)ccc2Cl)s1 [Example 111, 4-chloro-N-(4-chloro-3-(5-methylthiazol-2-yl)phenyl)-2,5-dimethylbenzenesulfonamide]"
3,> 100,"Cc1cc(S(=O)(=O)Nc2cccc(C(=O)N3CCCOC(C)(C)C3)c2)c(C)cc1Cl [Example 106, 4-chloro-N-(3-(2,2-dimethyl-1,4-oxazepane-4-carbonyl)phenyl)-2,5-dimethylbenzenesulfonamide]"
4,> 100,"O=S(=O)(Nc1csc(-c2ccccc2)n1)c1ccc(C(F)(F)F)cc1F [Example 141, 2-fluoro-N-(2-phenylthiazol-4-yl)-4-(trifluoromethyl)benzenesulfonamide]"
5,> 100,"Cc1cc(S(=O)(=O)N[C@H]2CCCN(C(=O)N3CCCC3)C2)c(C)cc1Cl [Example 130, (S)-4-chloro-2,5-dimethyl-N-(1-(pyrrolidinee-1-carbonyl)piperidin-3-yl)benzenesulfonamide]"
6,13,"Cc1ccc(C)c(S(=O)(=O)Nc2cccc(C(=O)N3CCOCC3C#N)c2)c1 (stereo not drawn) [Example 7, N-(3-(3-cyanomorpholine-4-carbonyl)phenyl)-2,5-dimethylbenzenesulfonamide]"
7,11,"Cc1cc(S(=O)(=O)Nc2cccc(C(=O)N(CC(N)=O)C3CCCC3)c2)c(C)cc1Cl [Example 113, N-(2-amino-2-oxoethyl)-3-((4-chloro-2,5-dimethylphenyl)sulfonamido)-N-cyclopentylbenzamide]"
8,7,"Cc1cc(S(=O)(=O)Nc2cccc(C(=O)N3CCc4cn[nH]c4C3)c2)c(C)cc1Cl [Example 107, 4-chloro-2,5-dimethyl-N-(3-(4,5,6,7-tetrahydro-1H-pyrazolo[3,4-c]pyridine-6-carbonyl)phenyl)benzenesulfonamide]"
9,30,"Cc1ccc(C)c(S(=O)(=O)Nc2cccc(C(=O)N3CCCC[C@@H]3C)c2)c1 [Example 6, (S)-2,5-dimethyl-N-(3-(2-methylpiperidine-1-carbonyl)phenyl)benzenesulfonamide]"
